Test results as given in patent publication US7868028B2 (priority 2002, dated 2011).
Where “and” joins values, the source holds several entries; their conditions need not be identical. Equal values may be shown once.

Legend:
[1] = tested on: voltage-gated sodium channel (site 1, [3H]Saxitoxin binding); set-up: species or system rat; for % inhibition: test concentration or dose not given here
Male Sprague-Dawley rats = settings: rat, in vivo; note: test concentration or dose not given here

SMILES | % inhibition [1] | further results
Cl.N=c1n(Cc2ccccc2)c2ccccc2n1CC(O)c1ccc(Cl)c(Cl)c1 (racemic) [Compound 2] | 46% | IC50 [1]: 21 µM; Average % MPE 5 minutes (Male Sprague-Dawley rats): 100 % MPE; Average % MPE Day 4 (Male Sprague-Dawley rats): 1 % MPE
Cc1ccc(Cn2c(=N)n(CC(O)COc3ccccc3)c3ccccc32)cc1.Cl (racemic) [Compound 4] | 47% | IC50 [1]: 21 µM; Average % MPE 5 minutes (Male Sprague-Dawley rats): 100 % MPE; Average % MPE Day 4 (Male Sprague-Dawley rats): −2 % MPE
Cl.N=c1n(Cc2ccccc2)c2ccccc2n1CC(O)c1ccccc1 (racemic) [Compound 5] | 38% | IC50 [1]: 41 µM; Average % MPE 5 minutes (Male Sprague-Dawley rats): 100 % MPE; Average % MPE Day 4 (Male Sprague-Dawley rats): 7 % MPE
Cl.N=c1n(Cc2ccccc2)c2ccccc2n1CC(O)c1cccs1 (racemic) [Compound 6] | 52% | IC50 [1]: 43 µM; Average % MPE 5 minutes (Male Sprague-Dawley rats): 93 % MPE and 80 % MPE and 100 % MPE
CCCCn1c(=N)n(CC(O)COc2ccccc2)c2ccccc21.Cl (racemic) [Compound 8] | 41% | IC50 [1]: 87 µM; Average % MPE 5 minutes (Male Sprague-Dawley rats): 100 % MPE
CCn1c(=N)n(CC(O)COc2ccc(Cl)cc2)c2ccccc21.Cl (racemic) [Compound 21] | 13% | –
Cl.N=c1n(CCN2CCOCC2)c2ccccc2n1CC(O)c1ccco1 (racemic) [Compound 25] | 16% | –
COc1ccc(C(O)Cn2c(=N)n(C)c3ccccc32)cc1.Cl (racemic) [Compound 27] | 17% | –
CCN(CC)CCn1c(=N)n(CC(O)c2ccc(OC)c(OC)c2)c2ccccc21.Cl (racemic) [Compound 31] | 19% | –
Cl.N=c1n(CCN2CCOCC2)c2ccccc2n1CC(O)COc1ccccc1 (racemic) [Compound 33] | 20% | –
Cl.N=c1n(CCN2CCOCC2)c2ccccc2n1CC(O)COc1ccc(Cl)cc1 (racemic) [Compound 35] | 20% | –
C=CCn1c(=N)n(CC(O)C(C)(C)C)c2ccccc21.Cl (racemic) [Compound 36] | 22% | –
CCOc1ccc(C(O)Cn2c(=N)n(CCN3CCCCC3)c3ccccc32)cc1.Cl (racemic) [Compound 37] | 22% | –
C=CCn1c(=N)n(CC(O)c2ccc(Br)cc2)c2ccccc21.Cl (racemic) [Compound 39] | 24% | –
Cl.N=c1n(CCN2CCCCC2)c2ccccc2n1CC(O)COc1ccc(Cl)cc1 (racemic) [Compound 40] | 24% | –
Cl.Cn1c(=N)n(CC(O)COc2ccccc2)c2ccccc21 (racemic) [Compound 44] | 27% | –
C=CCn1c(=N)n(CC(O)COc2ccc(Cl)cc2)c2ccccc21.Cl (racemic) [Compound 46] | 29% | –
COc1ccc(C(O)Cn2c(=N)n(Cc3ccccc3)c3ccccc32)cc1.Cl (racemic) [Compound 47] | 32% | –
CCCn1c(=N)n(CC(O)c2ccc(Cl)cc2)c2ccccc21.Cl (racemic) [Compound 48] | 32% | –
C=CCn1c(=N)n(CC(O)c2ccc(C)cc2)c2ccccc21.Cl (racemic) [Compound 50] | 33% | –
CN(C)CCn1c(=N)n(CC(O)c2ccc(Cl)c(Cl)c2)c2ccccc21.Cl (racemic) [Compound 51] | 36% | –
CCN(CC)CCn1c(=N)n(CC(O)COc2ccccc2)c2ccccc21.Cl (racemic) [Compound 55] | — (key: —: A dash (-) indicates less than 10% inhibition was observed in this test) | –
CCN(CC)CCn1c(=N)n(CC(O)COc2ccc(Cl)cc2)c2ccccc21.Cl (racemic) [Compound 56] | — (key: —: A dash (-) indicates less than 10% inhibition was observed in this test) | –

SMILES | % inhibition [1] | further results
Cl.Cn1c(=N)n(CC(O)COc2ccc(Cl)cc2)c2ccccc21 (racemic) [Compound 57] | — (key: —: A dash (-) indicates less than 10% inhibition was observed in this test) | –
CC(C)(C)C(O)Cn1c(=N)n(Cc2ccc(Cl)cc2)c2ccccc21.Cl (racemic) [Compound 59] | — (key: —: A dash (-) indicates less than 10% inhibition was observed in this test) | –
CCCCn1c(=N)n(CC(O)c2ccc(Br)cc2)c2ccccc21.Cl (racemic) [Compound 62] | — (key: —: A dash (-) indicates less than 10% inhibition was observed in this test) | –
C=CCn1c(=N)n(CC(O)c2ccc(Cl)cc2)c2ccccc21.Cl (racemic) [Compound 64] | — (key: —: A dash (-) indicates less than 10% inhibition was observed in this test) | –
Cl.N=c1n(Cc2ccc(Cl)cc2)c2ccccc2n1CC(O)c1ccco1 (racemic) [Compound 68] | — (key: —: A dash (-) indicates less than 10% inhibition was observed in this test) | –
CC(C)(C)C(O)Cn1c(=N)n(CCN2CCCCC2)c2ccccc21.Cl (racemic) [Compound 69] | 18% | –
Br.N=c1n(Cc2cccc3ccccc23)c2ccccc2n1CC(O)COc1ccccc1 (racemic) [Compound 73] | — (key: —: A dash (-) indicates less than 10% inhibition was observed in this test) | IC50 [1]: 107 µM
Br.CCCCCCCCCCCn1c(=N)n(CC(O)COc2ccccc2)c2ccccc21 (racemic) [Compound 74] | 33% | IC50 [1]: 117 µM
Br.N=c1n(CCN(Cc2ccccc2)Cc2ccccc2)c2ccccc2n1CC(O)COc1ccccc1 (racemic) [Compound 76] | — (key: —: A dash (-) indicates less than 10% inhibition was observed in this test) | IC50 [1]: 100 µM
Br.N=c1n(Cc2ccccc2)c2ccccc2n1CC(O)Cc1ccccc1 (racemic) [Compound 77] | 27% | IC50 [1]: 81 µM
CC(C)(C)c1ccc(Cn2c(=N)n(CC(O)COc3ccccc3)c3ccccc32)cc1.Cl (stereo not drawn) [Compound 12] | 59% | IC50 [1]: 34 µM
Cl.Cn1c(=N)n(CC(O)c2ccc(Cl)c(Cl)c2)c2ccccc21 (stereo not drawn) [Compound 13] | 46% | IC50 [1]: 232 µM
Cl.N=c1n(Cc2ccc(Cl)cc2)c2ccccc2n1CC(O)COc1ccccc1 (stereo not drawn) [Compound 14] | 16% | –
Cl.N=c1n(Cc2ccc(Cl)cc2)c2ccccc2n1CC(O)COc1ccc(Cl)cc1 (stereo not drawn) [Compound 15] | 11% | –
Cl.N=c1n(CCN2CCOCC2)c2ccccc2n1CC(O)c1cccs1 (stereo not drawn) [Compound 16] | 17% | –
CCn1c(=N)n(CC(O)c2cccs2)c2ccccc21.Cl (stereo not drawn) [Compound 17] | 11% | –
CCCCn1c(=N)n(CC(O)c2ccccc2)c2ccccc21.Cl (stereo not drawn) [Compound 18] | 11% | –
CCn1c(=N)n(CC(O)COc2ccccc2)c2ccccc21.Cl (stereo not drawn) [Compound 19] | 11% | –
CCCn1c(=N)n(CC(O)COc2ccccc2)c2ccccc21.Cl (stereo not drawn) [Compound 20] | 12% | –
Cl.Cn1c(=N)n(CC(O)C23CC4CC(CC(C4)C2)C3)c2ccccc21 (stereo not drawn) [Compound 23] | 15% | –
CC(O)Cn1c(=N)n(Cc2ccccc2)c2ccccc21.Cl (stereo not drawn) [Compound 24] | 16% | –
CC(C)(C)C(O)Cn1c(=N)n(Cc2ccccc2)c2ccccc21.Cl (stereo not drawn) [Compound 26] | 17% | –
CCN(CC)CCn1c(=N)n(CC(O)c2ccc(C)cc2)c2ccccc21.Cl (stereo not drawn) [Compound 28] | 17% | –

SMILES | % inhibition [1] | further results
CCCn1c(=N)n(CC(O)COc2ccc(Cl)cc2)c2ccccc21.Cl (stereo not drawn) [Compound 29] | 18% | –
Cl.N=c1n(CCN2CCCCC2)c2ccccc2n1CC(O)c1ccccc1 (stereo not drawn) [Compound 30] | 18% | –
Cl.N=c1n(CCN2CCCCC2)c2ccccc2n1CC(O)c1cccc2ccccc12 (stereo not drawn) [Compound 32] | 20% | –
Cl.Cn1c(=N)n(CC(O)c2cccs2)c2ccccc21 (stereo not drawn) [Compound 34] | 20% | –
Cl.N=c1n(CCN2CCCCC2)c2ccccc2n1CC(O)c1cccs1 (stereo not drawn) [Compound 38] | 22% | –
C=CCn1c(=N)n(CC(O)COc2ccccc2)c2ccccc21.Cl (stereo not drawn) [Compound 41] | 25% | –
CCN(CC)CCn1c(=N)n(CC(O)c2ccc(Cl)c(Cl)c2)c2ccccc21.Cl (stereo not drawn) [Compound 42] | 25% | –
CCCn1c(=N)n(CC(O)c2ccccc2)c2ccccc21.Cl (stereo not drawn) [Compound 43] | 26% | –
COc1ccc(C(O)Cn2c(=N)n(CCN3CCCCC3)c3ccccc32)cc1.Cl (stereo not drawn) [Compound 45] | 28% | –
C=CCn1c(=N)n(CC(O)c2ccc(OCC)cc2)c2ccccc21.Cl (stereo not drawn) [Compound 49] | 32% | –
Cc1ccc(Cn2c(=N)n(CC(O)COc3ccc(Cl)cc3)c3ccccc32)cc1.Cl (stereo not drawn) [Compound 52] | 37% | –
CCCCn1c(=N)n(CC(O)c2ccc(Cl)cc2)c2ccccc21.Cl (stereo not drawn) [Compound 53] | — (key: —: A dash (-) indicates less than 10% inhibition was observed in this test) | –
Cl.Cn1c(=N)n(CC(O)c2ccc(Cl)cc2)c2ccccc21 (stereo not drawn) [Compound 54] | — (key: —: A dash (-) indicates less than 10% inhibition was observed in this test) | –
Cl.Cn1c(=N)n(CC(O)c2cccc3ccccc23)c2ccccc21 (stereo not drawn) [Compound 58] | — (key: —: A dash (-) indicates less than 10% inhibition was observed in this test) | –
CCCn1c(=N)n(CC(O)c2ccc(C)cc2)c2ccccc21.Cl (stereo not drawn) [Compound 60] | — (key: —: A dash (-) indicates less than 10% inhibition was observed in this test) | –
CCCn1c(=N)n(CC(C)O)c2ccccc21.Cl (stereo not drawn) [Compound 61] | — (key: —: A dash (-) indicates less than 10% inhibition was observed in this test) | –
Cl.N=c1n(Cc2ccccc2)c2ccccc2n1CC(O)c1ccc(Br)cc1 (stereo not drawn) [Compound 63] | — (key: —: A dash (-) indicates less than 10% inhibition was observed in this test) | –
Cl.Cn1c(=N)n(CC(O)c2ccccc2)c2ccccc21 (stereo not drawn) [Compound 65] | — (key: —: A dash (-) indicates less than 10% inhibition was observed in this test) | –
CC(O)Cn1c(=N)n(C)c2ccccc21.Cl (stereo not drawn) [Compound 66] | — (key: —: A dash (-) indicates less than 10% inhibition was observed in this test) | –
Cl.N=c1n(Cc2ccccc2)c2ccccc2n1CC(O)c1ccco1 (stereo not drawn) [Compound 67] | — (key: —: A dash (-) indicates less than 10% inhibition was observed in this test) | –
Br.CCCCCCCCn1c(=N)n(CC(O)COc2ccccc2)c2ccccc21 (stereo not drawn) [Compound 72] | 20% | IC50 [1]: 66 µM
